Patent US20020137929A1, “1 - (3-heterocyclylphenyl) isothiourea, -isourea, -guanidine and -amidine herbicidal agents” (Intellectual Property Department, BASF Aktiengesellschaft, priority 1998, published 2002)

Columns and labels:
[1] = tested on: ECHCG (Barnyardgrass); test: Postemergence herbicidal evaluation; format: in vivo, Echinochloa crus-galli
In short: (§1)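 Visual 0–9 rating versus control (stand, vigor, malformation, size, chlorosis, overall appearance), taken four to five weeks post-spray. Two-week-old seedlings received roughly 0.0156–0.500 kg/ha active in acetone/water (50/50) with 0.5% TWEEN 20 via nozzle at 40 psi.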

[2] = tested on: ABUTH (Velvetleaf); test: Postemergence herbicidal evaluation; format: in vivo, Abutilon theophrasti
In short: as §1

[3] = tested on: ZEAMX (Corn, Field); test: Postemergence herbicidal evaluation; format: in vivo, Zea mays
In short: as §1

[4] = tested on: GLXMAW (Soybean, Williams); test: Postemergence herbicidal evaluation; format: in vivo, Glycine max, (L.) Merr. cv Williams
In short: as §1

[5] = tested on: CYPSE (Flatsedge); test: Postemergence weed control under flooded paddy conditions; format: in vivo, Cyperus serotinus; settings: postemergence weeds, 3-4 weeks after treatment
In short: (§2)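 With weeds 3 to 5 cm tall and rice at the 1.5 to 2.5 leaf stage, containers were flooded and water held 1.5 to 3 cm above soil. Compounds in 50/50 v/v aqueous/acetone went into the flood water at about 0.0313 to 0.500 kg/ha a.i. Effects were visually rated 0–9 against controls after three to four weeks in the greenhouse.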

[6] = tested on: CASOB (Sicklepod); test: Preemergence herbicidal evaluation; format: in vivo, Cassia obtusifolia; settings: rated 4-5 weeks after treatment
In short: (§3)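 Seeds were planted in potting soil in cups, then sprayed preemergence with the test compound in aqueous acetone at about 0.0156 to 0.500 kg per hectare. Cups were kept under greenhouse conditions and visually rated 4–5 weeks after treatment on a 0–9 scale against an untreated control.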

[7] = tested on: ORYSAT (Rice, Tebonnet); test: Postemergence herbicidal evaluation; format: in vivo, Oryza sativa, (L.) Tebonnet
In short: as §1

[8] = tested on: CYPIR (Rice Flatsedge); test: Postemergence weed control under flooded paddy conditions; format: in vivo, Cyperus iria; settings: postemergence weeds, 3-4 weeks after treatment
In short: as §2

[9] = tested on: CHEAL (Lambsquarters, Common); test: Preemergence herbicidal evaluation; format: in vivo, Chenopodium album; settings: rated 4-5 weeks after treatment
In short: as §3

[10] = tested on: GALAP (Galium); test: Preemergence herbicidal evaluation; format: in vivo, Galium aparine; settings: rated 4-5 weeks after treatment
In short: as §3

[11] = tested on: AMBEL (Ragweed, Common); test: Postemergence herbicidal evaluation; format: in vivo, Ambrosia artemisifolia
In short: as §1

[12] = tested on: CHEAL (Lambsquarters, Common); test: Postemergence herbicidal evaluation; format: in vivo, Chenopodium album
In short: as §1

[13] = tested on: CYPSE (Flatsedge); test: Preemergence weed control under flooded paddy conditions; format: in vivo, Cyperus serotinus; settings: rated 3-4 weeks after treatment
In short: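 Values are visual 0-9 scores against a control for a preemergence application into paddy flood water at about 0.0313 to 0.500 kg/ha. Greenhouse duration was three to four weeks.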

[14] = tested on: AMBEL (Ragweed, Common); test: Preemergence herbicidal evaluation; format: in vivo, Ambrosia artemisifolia; settings: rated 4-5 weeks after treatment
In short: as §3

CCOC(=O)CN1C(=O)C(CCO)S/C1=N/c1cc(-n2c(=O)cc(C(F)(F)F)n(C)c2=O)c(F)cc1Cl (centres unmarked) [Compound 49, Ethyl 2-{{2-chloro-5-[3,6-dihydro-3-methyl-2,6-dioxo-4-(trifluoromethyl)-1(2H)-pyrimidinyl]-4-fluorophenyl}imino}-5-(hydroxyethyl)-4-oxo-3-thiazolidineacetate]
5.5: Postemergence herbicidal rating ZEAMX ([3]; Rate 0.0313 kg/ha)
0.0: Postemergence herbicidal rating ECHCG ([1]; Rate 0.0313 kg/ha) | Postemergence herbicidal rating ECHCG ([1]; Rate 0.0625 kg/ha) | Postemergence herbicidal rating ECHCG ([1]; rate 0.0156 kg/ha) | Preemergence herbicidal rating CASOB ([6]; rate 0.0156 kg/ha) | Herbicidal rating CYPIR ([8]; rate 0.0313 kg/ha) | Herbicidal rating CYPIR ([8]; rate 0.0625 kg/ha) | Preemergence herbicidal rating GALAP ([10]; rate 0.0156 kg/ha) | Preemergence herbicidal rating GALAP ([10]; rate 0.0313 kg/ha) | Preemergence herbicidal rating AMBEL ([14]; rate 0.0156 kg/ha) | Preemergence herbicidal rating AMBEL ([14]; rate 0.0313 kg/ha)
9.0: Postemergence herbicidal rating ABUTH ([2]; Rate 0.0313 kg/ha) | Postemergence herbicidal rating ABUTH ([2]; Rate 0.0625 kg/ha) | Postemergence herbicidal rating ABUTH ([2]; rate 0.0156 kg/ha) | Preemergence herbicidal rating CASOB ([6]; rate 0.2500 kg/ha) | Preemergence herbicidal rating CHEAL ([9]; rate 0.0156 kg/ha) | Preemergence herbicidal rating CHEAL ([9]; rate 0.0313 kg/ha) | Preemergence herbicidal rating CHEAL ([9]; rate 0.0625 kg/ha) | Preemergence herbicidal rating CHEAL ([9]; rate 0.1250 kg/ha) | Preemergence herbicidal rating CHEAL ([9]; rate 0.2500 kg/ha) | Preemergence herbicidal rating GALAP ([10]; rate 0.2500 kg/ha) | Postemergence herbicidal rating AMBEL ([11]; Rate 0.0313 kg/ha) | Postemergence herbicidal rating AMBEL ([11]; Rate 0.0625 kg/ha) | Postemergence herbicidal rating AMBEL ([11]; rate 0.0156 kg/ha) | Postemergence herbicidal rating CHEAL ([12]; Rate 0.0313 kg/ha) | Postemergence herbicidal rating CHEAL ([12]; Rate 0.0625 kg/ha) | Postemergence herbicidal rating CHEAL ([12]; rate 0.0156 kg/ha) | Preemergence herbicidal rating AMBEL ([14]; rate 0.0625 kg/ha) | Preemergence herbicidal rating AMBEL ([14]; rate 0.1250 kg/ha) | Preemergence herbicidal rating AMBEL ([14]; rate 0.2500 kg/ha)
7.0: Herbicidal rating CYPIR ([8]; rate 0.2500 kg/ha) | Preemergence herbicidal rating GALAP ([10]; rate 0.0625 kg/ha) | Preemergence herbicidal rating GALAP ([10]; rate 0.1250 kg/ha)
7.5: Postemergence herbicidal rating GLXMAW ([4]; Rate 0.0313 kg/ha) | Postemergence herbicidal rating GLXMAW ([4]; rate 0.0156 kg/ha)
1.0: Postemergence herbicidal rating ORYSAT ([7]; rate 0.0156 kg/ha)
2.0: Herbicidal rating CYPSE ([5]; rate 0.0313 kg/ha) | Herbicidal rating CYPIR ([8]; rate 0.1250 kg/ha) | Herbicidal rating CYPSE ([13]; 0.0313 kg/ha)
3.0: Herbicidal rating CYPSE ([5]; rate 0.0625 kg/ha) | Preemergence herbicidal rating CASOB ([6]; rate 0.0313 kg/ha) | Preemergence herbicidal rating CASOB ([6]; rate 0.1250 kg/ha) | Postemergence herbicidal rating ORYSAT ([7]; Rate 0.0625 kg/ha) | Herbicidal rating CYPSE ([13]; 0.0625 kg/ha)
4.0: Herbicidal rating CYPSE ([5]; rate 0.2500 kg/ha) | Herbicidal rating CYPSE ([13]; 0.2500 kg/ha)
8.0: Postemergence herbicidal rating GLXMAW ([4]; Rate 0.0625 kg/ha)
5.0: Postemergence herbicidal rating ZEAMX ([3]; rate 0.0156 kg/ha)
2.5: Postemergence herbicidal rating ORYSAT ([7]; Rate 0.0313 kg/ha)
6.0: Postemergence herbicidal rating ZEAMX ([3]; Rate 0.0625 kg/ha)
